A short description of data set [1]: Clearance in ferret at 10 mg/kg, iv. Particulars: in vivo. The format is ADME, organism-based, Mustela putorius furo.
In data set [2] the test system is Nipah virus. Description: Potency index, ratio of EC50 of GS-441524 to EC50 of test compound for antiviral activity against Nipah B2004 infected in human NCI-H358 cells assessed as reduction in viral replication incubated for 48 to 144 hrs by reporter virus assay. The data set is classed as functional, Henipavirus nipahense. The following applies: time 48-144 hrs.

The subject of data set [3] is Middle East respiratory syndrome-related coronavirus. As to the kind of experiment: Antiviral activity against MERS-CoV infected in HAE cells assessed as reduction in viral replication at MOI of 0.5 incubated for 3 hrs followed by virus removal measured after 48 hrs by Hoechst 33258 staining based assay. The data set is classed as functional, organism-based.
Data set [4] deals with Nipah virus. As to the kind of experiment: Antiviral activity against Nipah B2004 infected in human NCI-H358 cells assessed as reduction in viral replication incubated for 48 to 144 hrs by reporter virus assay. The data set is classed as functional, organism-based. The following applies: Henipavirus nipahense.
Data set [5] has as its system Nipah virus. As to the kind of experiment: Antiviral activity against Nipah M1999 infected in human HeLa cells assessed as reduction in viral replication incubated for 48 to 144 hrs by reporter virus assay. The format is functional, organism-based. The following applies: Henipavirus nipahense.
Data set [6] has as its system Marburgvirus. Description: Potency index, ratio of EC50 of GS-441524 to EC50 of test compound for antiviral activity against MARV Rec. Bat371-GFP infected in human Huh-7 cells assessed as reduction in viral replication incubated for 48 to 144 hrs by fluorescence based assay. The data set is classed as functional. Particulars: time 48-144 hrs.
Data set [7] in a line: Half life in human at 2.5 mg/kg, iv. The data set is classed as ADME, organism-based. The following applies: in vivo.
Data set [8] in a line: Volume of distribution at steady state in human at 2.5 mg/kg, iv. The data set is classed as ADME, organism-based. The following applies: in vivo, read-out: Vdss.
Data set [9] in a line: Prodrug conversion in Normal human bronchial epithelial cells assessed as half life of triphosphate metabolite. The format is ADME, cell-based. Particulars: normal human bronchial epithelial cell.
Data set [10] is described as follows: Prodrug conversion in ferret assessed as AUC (0 to last) of parent nucleoside compound at 10 mg/kg, iv. Also noted: time 0 - last, dose 10 mg/kg, route iv. The data set is classed as ADME, organism-based, Mustela putorius furo. The following applies: in vivo.
Data set [11] relates to SARS-CoV-2. As to the kind of experiment: Antiviral activity against SARS-CoV-2 infected in human A549 cells expressing hACE2 assessed as reduction in viral replication at MOI of 0.025 incubated for 48 hrs by luciferase based assay. The data set is classed as functional, organism-based. The following applies: Severe acute respiratory syndrome coronavirus 2, A549, 48 h.
Data set [12] deals with Middle East respiratory syndrome-related coronavirus. Description: Antiviral activity against MERS-CoV infected in human Calu-3 2B4 cells assessed as reduction in viral replication at MOI of 0.08 infected for 1 hr followed by virus removal and subsequent addition of medium containing compound measured after 48 hrs post-infection by nLUC assay. The format is functional, organism-based.

Data set [13] is described as follows: Volume of distribution at steady state in ferret at 10 mg/kg, iv. The format is ADME, organism-based, Mustela putorius furo. The following applies: in vivo, read-out: Vdss.
Data set [14] concerns SARS-CoV-2. Description: Potency index, ratio of EC50 of GS-441524 to EC50 of test compound for antiviral activity against SARS-CoV-2 infected in human PSC-derived lung epithelial cells assessed as reduction in viral replication. The format is functional, Severe acute respiratory syndrome coronavirus 2, PSC-derived lung epithelial cell.
In data set [15] the test system is SARS-CoV-2. Description: Antiviral activity against SARS-CoV-2 infected in human Huh-7 cells assessed as reduction in virus-induced cytopathic effect at MOI of 0.0037 measured after 4 days by MTS assay. Particulars: Severe acute respiratory syndrome coronavirus 2, Huh-7, 96 h. The data set is classed as functional, organism-based.
The test system of data set [16] is SARS-CoV-2. Description: Antiviral activity against SARS-CoV-2 infected in African green monkey Vero E6 cells assessed as reduction in viral replication. The format is functional, organism-based. The following applies: Severe acute respiratory syndrome coronavirus 2, Vero C1008.
The subject of data set [17] is Marburgvirus. As to the kind of experiment: Antiviral activity against MARV Rec. Bat371-GFP infected in human Huh-7 cells assessed as reduction in viral replication incubated for 48 to 144 hrs by fluorescence based assay. The format is functional, organism-based. Particulars: Orthomarburgvirus.

As to `CCC(CC)OC(=O)[C@H](C)N[P@](=O)(OC[C@H]1O[C@@](C#N)(c2ccc3c(N)ncnn23)[C@H](O)[C@@H]1O)Oc1ccccc1`, the clearance in [1] is 43.3 mL/min/kg. Besides, the values for the Ratio in data set [2], in data set [6] and in data set [14] were 77, 136 and 5.3, respectively. Besides, the EC50 in data set [3] is 74 nM; in data set [4] it was 32 nM; in data set [5], 66 nM; in [11], 115 nM; in data set [12], 69 nM; in data set [15] it was less than 1 nM. Besides, the results for the half-maximal effective concentration (EC50) in data set [16] and in data set [17] were 740 nM and 14 nM, respectively. The same compound showed a half-life in data set [7] of 60 min. The Vd in data set [8] came out at 1.22 L/kg; in data set [13], 0.34 L/kg. The t1/2 in data set [9] came to 14 h. Besides, the AUClast in [10] came to 18.2 µM·h.

Broadly, the clearance is the volume of plasma or blood freed of the substance per unit of time. The EC50 is the concentration that produces a half-maximal response. By half-life is commonly meant the time in which the quantity being followed falls by half.

(Values after ChEMBL document CHEMBL5107958, “Phosphoramidate Prodrugs Continue to Deliver, The Journey of Remdesivir (GS-5734) from RSV to SARS-CoV-2” (ACS Med Chem Lett, 2022).)
